Measurements published in US8815841B2, “1,4-Oxazepines as BACE1 and/or BACE2 inhibitors” (Hoffmann-La Roche Inc., priority 2011, dated 2014).
Counter-ions that a name gives are not always drawn.

Assays:
[1] = biological target: T1, endogenous cellular BACE2 (human TMEM27 cleavage) in the Ins 1e rat cell line (Rattus norvegicus, UniProt Q6IE75); experiment: Assay for BACE inhibition by measuring cellular TMEM27 cleavage; type: cell-based; settings: INS-TMEM27 cells, shed TMEM27 in culture medium by ELISA
T1 construct: endogenous cellular BACE2 in the Ins 1e rat cell line; endogenous in cells; host or cells: INS-TMEM27 (INS1e-derived rat cell line with doxycycline-inducible full-length human TMEM27)
T1 sequence (Q6IE75 63-514): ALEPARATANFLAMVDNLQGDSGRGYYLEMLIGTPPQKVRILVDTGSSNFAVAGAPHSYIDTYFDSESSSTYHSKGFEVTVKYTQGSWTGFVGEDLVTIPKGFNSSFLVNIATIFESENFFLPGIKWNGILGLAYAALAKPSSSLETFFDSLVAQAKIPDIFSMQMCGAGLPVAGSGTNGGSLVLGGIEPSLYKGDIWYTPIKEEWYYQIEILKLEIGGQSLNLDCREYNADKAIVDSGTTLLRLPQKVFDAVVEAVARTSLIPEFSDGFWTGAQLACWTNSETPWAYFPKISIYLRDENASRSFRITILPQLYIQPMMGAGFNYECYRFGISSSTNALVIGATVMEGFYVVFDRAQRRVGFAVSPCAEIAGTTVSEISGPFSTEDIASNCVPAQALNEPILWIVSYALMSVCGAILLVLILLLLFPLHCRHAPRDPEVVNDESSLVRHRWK
Description: Assay for BACE Inhibition by Measuring Cellular TMEM27 Cleavage:
The assay uses the principle of inhibition of human TMEM27 cleavage by endogenous cellular BACE2 in the Ins 1e rat cell line and shedding from the cell surface into the culture medium, followed by detection in an ELISA assay. Inhibition of BACE2 prevents the cleavage and shedding in a dose-dependent manner.
The stable cell line “INS-TMEM27” represents an INSle-derived cell line with inducible expression (using the TetOn system) of full-length hTMEM27 in a doxycycline-dependent manner. The cells are cultured throughout the experiment in RPMI1640+Glutamax (Invitrogen) Penicillin/Streptomycin, 10% Fetal bovine serum, […], […], 100 micrograms/ml G418 and 100 microgram/ml hygromycin and are grown inadherent culture at 37° C. in a standard CO2 cell culture incubator.
INS-TMEM27 cells are seeded in 96-well plates. After 2 days in culture, BACE2 inhibitor is added in a range of concentrations as required by the assay and after a further two hours, doxycycline is added to a final concentration of 500 ng/ml. The cells are incubated for a further 46 hours and the supernatant harvested for detection of shed TMEM27.
An ELISA assay (using a pair of mouse anti-human-TMEM27 antibodies, raised against the extracellular domain of TMEM27) is used for detection of TMEM27 in the culture medium. An EC50 for BACE2 inhibition is calculated using the ELISA readout for each inhibitor concentration with standard curve-fitting software such as XLFit for the Excel spreadsheet program.

[2] = tested on: Aβ40 in Human HEK293 cells stably transfected with human APP wt gene (APP695); experiment: Cellular Aβ-lowering assay; type: cell-based; settings: HEK293 cells expressing human APP695, Aβ40 in culture supernatant by ELISA after 18-20 hrs; read-out: Cellular assay Abeta40 IC50
Experimental: Cellular Aβ-lowering Assay:
Human HEK293 cells which are stably transfected with a vector expressing a cDNA of the human APP wt gene (APP695) were used to assess the potency of the compounds in a cellular assay. The cells were seeded in 96-well microtiter plates in cell culture medium (Iscove, plus 10% (v/v) fetal bovine serum, glutamine, penicillin/streptomycin) to about 80% confluence and the compounds were added at a 10× concentration in 1/10 volume of medium without FCS containing 8% DMSO (final concentration of DMSO was kept at 0.8% v/v). After 18-20 hrs incubation at 37° C. and 5% CO2 in a humidified incubator the culture supernatant was harvested for the determination of Aβ40 concentrations. 96 well ELISA plates (e.g., Nunc MaxiSorb) were coated with monoclonal antibody which specifically recognize the C-terminal end of Aβ40 (Brockhaus et al., NeuroReport 9, 1481-1486; 1998). After blocking of non-specific binding sites with e.g. 1% BSA and washing, the culture supernatants were added in suitable dilutions together with a horseradish peroxidase-coupled Aβ detection antibody (e.g., antibody 4G8, Senetek, Maryland Heights, Mo.) and incubated for 5 to 7 hrs. Subsequently the wells of the microtiter plate were washed extensively with Tris-buffered saline containing 0.05% Tween 20 and the assay was developed with tetramethylbenzidine/H2O2 in citric acid buffer. After stopping the reaction with one volume 1 NH2SO4 the reaction was measured in an ELISA reader at 450 nm wavelength. The concentrations of Aβ in the culture supernatants were calculated from a standard curve obtained with known amounts of pure Aβ peptide.

| Structure (SMILES) | IC50 [1] | IC50 [2] |
| --- | --- | --- |
| C[C@]1(c2cc(NC(=O)c3ncc(C(N)=O)cc3F)ccc2F)N=C(N)COCC1(F)F [Example 1, (R)—N2-(3-(3-Amino-6,6-difluoro-5-methyl-2,5,6,7-tetrahydro-1,4-oxazepin-5-yl)-4-fluorophenyl)-3-fluoropyridine-2,5-dicarboxamide formate] | 14600 nM | 350 nM |
| CC[C@]1(c2cc(NC(=O)c3ncoc3C3CC3)ccc2F)N=C(N)COCC1(F)F [Example 4, (R)—N-(3-(3-Amino-5-ethyl-6,6-difluoro-2,5,6,7-tetrahydro-1,4-oxazepin-5-yl)-4-fluorophenyl)-5-cyclopropyloxazole-4-carboxamide] | 662 nM | 2400 nM |
| CSc1cnc(C(=O)Nc2ccc(F)c([C@@]3(C)N=C(N)COCC3(F)F)c2)cn1 [Example 5, (R)—N-(3-(3-Amino-6,6-difluoro-5-methyl-2,5,6,7-tetrahydro-1,4-oxazepin-5-yl)-4-fluorophenyl)-5-(methylthio)pyrazine-2-carboxamide formate] | 103 nM | 10 nM |
| C[C@]1(c2cc(NC(=O)c3ccc(C4CC4)cn3)ccc2F)N=C(N)COCC1(F)F [Example 7, (R)—N-(3-(3-Amino-6,6-difluoro-5-methyl-2,5,6,7-tetrahydro-1,4-oxazepin-5-yl)-4-fluorophenyl)-5-cyclopropylpicolinamide formate] | 123 nM | 25 nM |
| C[C@]1(c2cc(NC(=O)c3ccc(-c4nccs4)cn3)ccc2F)N=C(N)COCC1(F)F [Example 3, (R)—N-(3-(3-Amino-6,6-difluoro-5-methyl-2,5,6,7-tetrahydro-1,4-oxazepin-5-yl)-4-fluorophenyl)-5-(thiazol-2-yl)picolinamide formate] | 5730 nM | 10 nM |
| C[C@]1(c2cc(NCC3CC3)ccc2F)N=C(N)COC[C@@H]1F [Example 9, (5R,6R)-5-(5-(Cyclopropylmethylamino)-2-fluorophenyl)-6-fluoro-5-methyl-2,5,6,7-tetrahydro-1,4-oxazepin-3-amine] | 22.6 nM | 28 nM |
| COCC#Cc1ccc(C(=O)Nc2ccc(F)c([C@@]3(C)N=C(N)COCC3(F)F)c2)nc1 [Example 8, (R)—N-(3-(3-Amino-6,6-difluoro-5-methyl-2,5,6,7-tetrahydro-1,4-oxazepin-5-yl)-4-fluorophenyl)-5-(3-methoxyprop-1-ynyl)picolinamide formate] | 837 nM | 70 nM |
| C[C@]1(c2cc(NC(=O)c3ccc(C#CC4CC4)cn3)ccc2F)N=C(N)COCC1(F)F [Example 6, (R)—N-(3-(3-Amino-6,6-difluoro-5-methyl-2,5,6,7-tetrahydro-1,4-oxazepin-5-yl)-4-fluorophenyl)-5-(cyclopropylethynyl)picolinamide formate] | 311 nM | 20 nM |
